Patent US20240269196A1, “RESPIRATORY TREATMENTS USING SALMONID OIL COMPOSITIONS” (Hofseth Biocare ASA, priority 2020, published 2024)
Values joined by “and” are separate entries in the source; they are usually repeats but may differ in a detail not shown here. Equal values may be shown once. Read-outs that look alike come from different tables or passages of the source.

Columns and labels:
[1] = type: in vivo; conditions: for Mortality and Morbidity: No. of Incidence/No. of Animals: incidence of the observation 'No mortality/morbidity'
Source text: Clinical signs were observed after test item administration and all the other days throughout the study period for all the animals. The cage side observations included (but not limited to) changes in skin and fur, eyes and mucous membranes, as well as respiratory, circulatory, autonomic and central nervous system, somatomotor activity and behavior pattern.
Animals were weighed during randomization, at start of treatment and weekly thereafter, until the end of experimental period.
Raw Data were processed using Statistical Software Sigma Plot 14. The mean and Standard Deviation were calculated using the Software and all data were summarized in tabular form. All continuous data like the body weight was checked for their normality and for homogeneous data, ANOVA was used.

[2] = tested on: guinea pig peritoneal eosinophils; experiment: Chemotactic and chemokinetic activities to leukotriene B4 of peritoneal eosinophils after i.p. pretreatment (Boyden chamber); type: in vivo, Cavia porcellus (Guinea Pig); conditions: for chemokinetic (B) activity to leukotriene B4 (0.1 uM), individual animals / chemotactic (A) activity to leukotriene B4 (0.1 uM), individual animals: guinea pig peritoneal eosinophils; for inhibition of eosinophil chemotactic and chemokinetic activities: i.p. pretreatment, n=3 per dose
Procedure: The animals used in this example were from the species Cavia porcellus (Guinea Pig). A total of 21 male guinea pigs weighing between 200-250 g were selected. These animals were manually randomized into 7 groups i.e. G1 and G2 (OmeGo Salmon oil 30 and 300 mg/kg), G3 and G4 (SEACOD 30 and 300 mg/kg), G5 and G6 were positive control (Fevipiprant 5 and 20 mg/kg) and G7 was negative control (linoleic acid 300 mg/kg) wherein each group consisted of 3 animals.
Guinea pigs were sensitized to create mild eosinphilia by intraperitoneal injection of Polymyxin B (1 mg/animal) once a week for 6 weeks. Polymyxin B was given by dissolving it in 0.9% saline solution. Each animal was injected with 0.5 mL of 0.9% saline containing 1 mg of Polymyxin B. In week 6, in addition to the Polymyxin B, animals were injected with test items belonging to their specific group, as shown in Table 5 below.
Animals were treated with Polymyxin B through an intraperitoneal injection. Along with Polymyxin B even the test items were given through the intraperitoneal route. In the 6th week animals were anesthetized using isoflurane and the intraperitoneal fluid was collected by injecting 50 mL of saline in the peritoneum cavity. After massaging the abdomen for 15 seconds the fluid was drained and collected in the centrifuge tubes. Around 30-35 mL of fluid was collected from each animal. This fluid was centrifuged for 10 mins (400×g 4° C.) and was resuspended in FBS (Fetal bovine serum) medium. Following this step, the fluid was recentrifuged for 10 min (400×g 4° C.) and the cell pellet was analyzed for chemotactic and chemokinetic responses of eosinophils to leukotriene B4 and cell counts using a 96-well microchemotaxis test chamber.
Eosinophils were recovered at greater than 90% purity using a modified procedure reported by Fukusa et. al. (Increased numbers of hypodense eosinophils in the blood of patients with bronchial asthma. Am. Rev. Respir. Dis. 1985; 132:981-985).
The animals were treated with Polymyxin B saline solution once every week for continuously 5 weeks and in the 6th week along with the Polymyxin B test item was given as per the groups. Each animal received 1 mg of Polymyxin B.
The chemotactic and chemokinetic activities were measured by the Boyden chamber method using a 96-well microchamber and expressed as the number of eosinophils counted on the membrane filter under ×400 magnification (cells/five fields). The chemokinetic activity to leukotriene B4 was examined by placing the same concentration of leukotriene B4 (0.1 μM) in both compartments of the chamber. Viability of the eosinophils was determined by the Trypan blue dye exclusion test after incubation for 90 min. All samples were assayed in duplicate. Blood was also collected on the same day and plasma was separated and stored at −20° C. for follow-on anti-inflammatory biomarker assays.

[3] = 20 mg (i.p.), compared to control

Row | SMILES | Mortality and Morbidity: Observation ([1]; 5 mg/kg bw) | Mortality and Morbidity: No. of Incidence/No. of Animals ([1]; 5 mg/kg bw) | Mortality and Morbidity: Observation ([1]; 20 mg/kg bw) | Mortality and Morbidity: No. of Incidence/No. of Animals ([1]; 20 mg/kg bw) | chemokinetic (B) activity to leukotriene B4 (0.1 uM), individual animals ([2]; 5 mg/kg bw i.p.) | chemotactic (A) activity to leukotriene B4 (0.1 uM), individual animals ([2]; 5 mg/kg bw i.p.) | Maximum inhibition for chemokinesis [2, 3] [%] | Maximum inhibition for chemotaxis [2, 3] [%] | chemokinetic (B) activity to leukotriene B4 (0.1 uM), individual animals ([2]; 20 mg/kg bw i.p.) | chemotactic (A) activity to leukotriene B4 (0.1 uM), individual animals ([2]; 20 mg/kg bw i.p.) | inhibition of eosinophil chemotactic and chemokinetic activities [2] | chemokinetic (B) activity to leukotriene B4 (0.1 uM), individual animals ([2]; 300 mg/kg bw i.p.) | chemotactic (A) activity to leukotriene B4 (0.1 uM), individual animals ([2]; 300 mg/kg bw i.p.)
1 | Cc1c(CC(=O)O)c2cccnc2n1Cc1ccc(S(C)(=O)=O)cc1C(F)(F)F [Fevipiprant] | No mortality/morbidity | 03/03 | No mortality/morbidity | 03/03 | 290 Cells/5 fields (2×) and 280 Cells/5 fields | 425 Cells/5 fields and 390 Cells/5 fields and 420 Cells/5 fields | 51.7 | 68.0 | 160 Cells/5 fields and 175 Cells/5 fields and 165 Cells/5 fields | 320 Cells/5 fields and 325 Cells/5 fields and 330 Cells/5 fields | significantly inhibited |  | 
2 | CCCCC/C=C\C/C=C\CCCCCCCC(=O)O [Linoleic acid] |  |  |  |  |  |  |  |  |  |  | did not inhibit | 335 Cells/5 fields and 360 Cells/5 fields and 340 Cells/5 fields | 770 Cells/5 fields and 790 Cells/5 fields and 760 Cells/5 fields
